Results from patent US5453439A, “Hydroxylamine derivatives” (Zeneca Limited, priority 1992, dated 1995).

Experiments:
5-LO = target: T1, 5-LO (Homo sapiens, UniProt P09917); test: Test a) in vitro heparinised human blood, A23187 challenge, LTB4 radioimmunoassay (indirect inhibition of 5-LO); type: cell-based
T1 construct: incubating a test compound with heparinised human blood; endogenous in cells; host or cells: heparinised human blood (blood cells; A23187 challenge)
T1 sequence (P09917 1-674): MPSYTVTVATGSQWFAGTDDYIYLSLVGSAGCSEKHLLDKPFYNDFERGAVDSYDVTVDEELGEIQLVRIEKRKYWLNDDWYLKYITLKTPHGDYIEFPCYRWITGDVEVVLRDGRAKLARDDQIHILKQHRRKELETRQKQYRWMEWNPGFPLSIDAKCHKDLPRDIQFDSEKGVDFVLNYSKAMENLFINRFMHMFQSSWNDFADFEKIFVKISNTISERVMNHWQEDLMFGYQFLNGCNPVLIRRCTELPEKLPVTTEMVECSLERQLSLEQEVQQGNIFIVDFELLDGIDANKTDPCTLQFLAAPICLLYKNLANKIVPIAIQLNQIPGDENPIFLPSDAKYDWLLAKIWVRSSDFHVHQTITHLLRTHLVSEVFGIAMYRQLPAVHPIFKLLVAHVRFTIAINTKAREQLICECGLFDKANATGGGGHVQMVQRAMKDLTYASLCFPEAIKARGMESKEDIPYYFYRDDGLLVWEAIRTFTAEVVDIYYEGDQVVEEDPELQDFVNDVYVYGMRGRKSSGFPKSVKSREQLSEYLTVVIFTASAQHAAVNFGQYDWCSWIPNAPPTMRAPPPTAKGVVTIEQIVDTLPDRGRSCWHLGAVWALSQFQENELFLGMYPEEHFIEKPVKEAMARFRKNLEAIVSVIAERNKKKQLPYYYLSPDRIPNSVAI
Experimental: a) An in vitro assay system involving incubating a test compound with heparinised human blood, prior to challenge with the calcium ionophore A^23187 and then indirectly measuring the inhibitory effects on 5-LO by assaying the amount of LTB4 using specific radioimmunoassays described by Carey and Forder (Prostaglandins, Leukotrienes Med., 1986, 22, 57; Prostaglandins, 1984, 28, 666; Brit. J. Pharmacol., 1985, 84, 34P) which involves the use of a protein-LTB4 conjugate produced using the procedure of Young et alia (Prostaglandins, 1983, 26(4), 605-613). The effects of a test compound on the enzyme cyclooxygenase (which is involved in the alternative metabolic pathway for arachidonic acid and gives rise to prostaglandins, thromboxanes and related metabolites) may be measured at the same time using the specific radioimmunoassay for thromboxane B2 (TxB2) described by Carey and Forder (see above). This test provides an indication of the effects of a test compound against 5-LO and also cyclooxygenase in the presence of blood cells and proteins. It permits the selectivity of the inhibitory effect on 5-LO or cyclooxygenase to be assessed.

[1] = tested on: LTB4 liberation induced by zymosan (5-LO); test: Test c) in vivo zymosan-induced LTB4 liberation in rat subcutaneous air pouch, oral administration; conditions: 3 h; test c)
Experimental: c) An in vivo system involving measuring the effects of a test compound administered orally against the liberation of LTB4 induced by zymosan within an air pouch generated within the subcutaneous tissue of the back of male rats. The rats are anaesthetised and air pouches are formed by the injection of sterile air (20 ml). A further injection of air (10 ml) is similarly given after 3 days. At 6 days after the initial air injection the test compound is administered (usually orally as the suspension produced when a solution of the test compound in dimethylsulphoxide is added to hydroxypropylmethylcellulose), followed by the intrapouch injection of zymosan (1 ml of a 1% suspension in physiological saline). After 3 hours the rats are killed, the air pouches are lavaged with physiological saline, and the specific radioimmunoassay described above is used to assay LTB4 in the washings. This test provides an indication of inhibitory effects against 5-LO in an inflammatory milieu.

IC50 (5-LO) [nM]	Compound	ED50 [1] [mg/kg]
570	COC1(c2cc(F)cc(Sc3ccc(C(C)N(O)C(N)=O)cc3)c2)CCOCC1 (stereo not drawn) [N-{4-[5-fluoro-3-(4-methoxytetrahydropyran-4-yl)phenylthio]-α-methylbenzyl)-N-hydroxyurea]	~0.5
40	CONC(C)c1ccc(Sc2cc(F)cc(C3(OC)CCOCC3)c2)cc1 (stereo not drawn) [N-{4-[5-fluoro-3-(4-methoxytetrahydropyran-4-yl)phenylthio]-α-methylbenzyl}-O-methylhydroxylamine]	~0.5
150	COC1(c2cc(F)cc(Sc3ccc(C(C)N(OC(C)=O)C(C)=O)cc3)c2)CCOCC1 (stereo not drawn) [O-acetyl-N-{4-[5-fluoro-3-(4-methoxytetrahydropyran-4-yl)phenylthio]-α-methylbenzyl}acetohydroxamic acid]	~0.5
